Data set [1] has as its target T1, ultra large complexes (ULC) between PF4 tetramers and heparin (Homo sapiens, UniProt P02776).
T1 construct: platelet factor 4 which is a 70 amino acid, lysine-rich, 7.8 kDa platelet-specific protein
T1 sequence (P02776 32-101): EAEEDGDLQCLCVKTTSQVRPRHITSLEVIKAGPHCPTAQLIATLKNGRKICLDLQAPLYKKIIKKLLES
Put plainly: Inhibition of formation of ultra large complexes (ULC) of PF4 tetramers and heparin. The data set is classed as biochemical. The settings on record: IC50 values are +/−20%. On the procedure:
Since ULCs are formed as part of a dynamic equilibrium between heparin and PF4, dynamic light scattering (DLS) was performed to measure the ability of the exemplified compounds to disrupt preformed ULCs. Samples were analyzed and included PF4 incubated in the absence or presence of unfractionated heparin (UFH) for 20 min at room temperature at PF4 to heparin ratios (PHR) of 1:0 (no heparin), 2:1, and 0.64:1. The samples were then analyzed using photon correlation spectroscopy on a DynaPro® DLS instrument and Dynamics® software (V6.7.6; […]) to obtain correlation function. The results of the DLS analysis indicate the percentage of ULCs and small PF4 particles. Data for the small particles (a population of particles with a mean hydrodynamic diameter of about 1 nm) and data for the large particles (a population of particles with a mean hydrodynamic diameter of about 300 nm) is assessed. Data are expressed as the percent of total intensity from each measurement, the mean of 10 measurements, and representative of two such experiments.
ELISA measurement and gel filtration measurement of ULC inhibition were performed as described in International Patent Publication No. WO2013/142328, which is incorporated herein by reference. Similarly, assays in which heparin concentrations are varied to determine the effect on ULC inhibition were performed as described in that publication.
Certain compounds were evaluated for their ability to inhibit formation of ultra large complexes (ULC) between PF4 tetramers and heparin.

Data set [2] in a line: Cytotoxicity HepG2 (MTS reduction). As to conditions: human, HepG2 cells; read-out: Cytotox HepG2 EC50. The format is cell-based.
Data set [3] deals with human platelets. Description: PF4-KKO induced platelet activation, P-selectin, human platelets. The format is cell-based.
Data set [4] is described as follows: Mouse microsome stability. The format is in vitro ADME. The settings on record: Mouse microsomes, compound conc = 0.5 μM, n = 1; read-out: Mouse microsome stability Half life t1/2. An excerpt:
(§1) Certain exemplified compounds were examined for ADMET (absorption, distribution, metabolism, excretion and toxicity) profiling using conventional assays with the results shown in the Tables 3A-3C below.

In data set [5] the target is T2, human PF4 (Homo sapiens, UniProt P02776).
T2 construct: PF4 is a 70 amino acid, lysine-rich 7.8 kDa platelet-specific protein; made in house; host or cells: Escherichia coli BL21DE3 pLysS (pT7-7) and/or Drosophila S2 cells
T2 sequence (P02776 32-101): T1 sequence (P02776 32-101)
Description: Inhibition of PF4 tetramer formation (BS3 cross-linking, SDS-PAGE). The format is biochemical. As to conditions: for IC50: read-out: IC50 of PF4 tetramer formation inhibition. The method, boiled down: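 Recombinant human wild-type PF4 (E. coli-expressed, heparin-purified), 10 μg/ml in PBS, incubated with compound 15 min at 37° C or 60 min at room temperature, then cross-linked with 0.2 mM BS3 for 30 min at room temperature. Reducing 12% SDS-PAGE; bands quantified as % tetramer, trimer, dimer, monomer versus compound-free control.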

Data set [6] is described as follows: Cytotoxicity NIH3T3 (MTS reduction). The settings on record: mouse, NIH3T3 cells, 1 hour exposure in the absence of serum, N = 3, read-out: Cytotox NIH3T3 EC50. The data set is classed as cell-based.
A short description of data set [7]: Human microsome stability. The format is in vitro ADME. The settings on record: Human microsomes, compound conc = 0.5 μM, n = 1; read-out: Human microsome stability Half life t1/2.
Text: as §1

Experimental findings from US20250281424A1 (New York Blood Center, Inc, priority 2020, published 2025) are described below.

For the compound `CCCNC(=O)C1C(=O)c2ccc(C(=O)c3ccc4c(c3)C(=O)C(C(=O)NCCC)C4=O)cc2C1=O` (stereo not shown) [Example 15, 5,5′-carbonylbis(1,3-dioxo-indan-2-carboxylic acid propylamide)], the 50% inhibitory concentration (IC50) in data set [1] was 11 µM; in data set [5], 3 µM. In data set [2], the concentration for a half-maximal effect (EC50) is above 1000 µg/mL. In addition, in data set [3] (human platelet activation assays, 20 μM and 40 μM (FIGS. 8 and 9)), the “PF4-KKO induced platelet activation using P-selectin as a marker” value is listed as “inhibitory”. For the same compound, the “preventing PF4-KKO induced platelet activation using P-selectin as a marker” value in data set [3] (human platelets (FIG. 12)) is on record as “efficacy”. The half-life at 0.5 μM in data set [4] turned out to be 93.8 min; in data set [7], 116 min. The inhibition at 30 µM in data set [5] (30 μM inhibitor, read-out: % inhibition of PF4 tetramer formation at single concentration of inhibitor) turned out to be 93%. For the same compound, the half-maximal effective concentration (EC50) at 1 h in data set [6] was above 1000 µg/mL.
As for `O=C(c1ccc2c(c1)C(=O)CC2=O)c1ccc2c(c1)C(=O)CC2=O` [Example 4, 5,5′-carbonylbis(1h-indene-1,3(2h)-dione)], the IC50 is 3 µM in data set [1] and 4 µM in data set [5]. Besides, the EC50 in data set [2] is above 250 µg/mL. In addition, the half-life at 0.5 μM in data set [4] is 1.7 min; in data set [7], 4.7 min. Further, the inhibition at 100 µM in data set [5] (100 μM inhibitor, read-out: % inhibition of PF4 tetramer formation at single concentration of inhibitor) came to 96%. Further, in data set [6], the EC50 at 1 h was above 250 µg/mL.
